Laboratory results taken from patent US20090227534A1, “Pharmaceutical Composition Comprising the Combination of a Ketorolac Salt and Vitamins of the-B-Complex for the Treatment of Neuralgia” (LABORATORIOS SENOSITAN S.A. DE C.V., priority 2006, published 2009).
Where two headings read alike, the source gives them in different places.

What was measured:
rat paw = experiment: Antinociceptive effect, heat-stimulation model in the rat paw (carrageen); assay type: in vivo; conditions: oral, measured for 6 hours
Experimental: Methodology: We worked with five groups of 8 rats each. The antinociceptive effect was evaluated through the heat-stimulation model in the rat paw. Used substances: saline solution, carrageen to produce the nociceptive effect (pain), ketorolac, riboflavin and B-complex (vitamins B1, B6 and B12). For the doses-response curve, each group received a ketorolac dose so that 0.32, 1, 1.8, 3.2 y 10 mg/kg of weight were administrated orally. The antinociceptive effect was measured for 6 hours. Latency time curves were plot on a graph (the time rat takes before moving […] its paw to avoid the pain) as a function of time. Saline solution was used as a negative control solution (establishing the base level) and carrageen to produce a sensitizing effect (inflammation). […] The following were administered: Riboflavin (alone), Ketorolac (alone), B-Complex (alone), Ketorolac and Riboflavin combination, and Ketorolac and B-Complex combination. Isobolograms were made in order to evaluate the interaction between ketorolac and B-complex using the ED25 values (effective doses) obtained from the dose-response curves for the administered drugs alone or combined.

rats = experiment: Antinociception, formalin test (1% 50 μl), second phase; assay type: in vivo; conditions: rat, phase two; for Emax: read-out: maximum effect (decrease in number of shakes)
Experimental: We worked with five groups of 8 rats each. The antinociception effect was evaluated via the formalin test (1% 50 μl); rats are placed in an observation chamber made of acrylic material. The nociceptive behavior was evaluated based on the number of shakes at the injected paw.
Used substances: saline solution, formalin (produces nociceptive effect), ketorolac, riboflavin and B-complex (vitamins B1, B6 and B12).
For the dose-response curve, each group received a 0.32-10 mg/kg of ketorolac dose, 6.25-100 mg/kg of riboflavin, 56-316 mg/kg of B-complex, ketorolac-B-complex combination and ketorolac-riboflavin combinations.
The antinociceptive effect was measured for sixty minutes. […] Acute or initial phase from 0 to 10 minutes and tonic phase from 15 to 60 minutes.
Curves for the number of shakes against time were plot and the area under the curve was obtained (AUC) for the second phase, using the trapezoids method.
The dose-response curve for each composition was obtained as the percentage of the maximum possible effect.
The antinociceptive effect of ketorolac, B-complex in ratios of 100:100:1 of B1, B6 and B12 (respectively), riboflavin, ketorolac-B-complex combination, and ketorolac-riboflavin combination were evaluated.
A saline solution was used as a negative control solution (base level).
Administration: riboflavin (alone), ketorolac (alone), B-complex (alone), ketorolac-riboflavin combination, and ketorolac-B-complex combination.

[1] = Solubility of ketorolac in water; assay type: physicochemical
From the text: (§1) Clinical studies have shown that ketorolac is a strong and effective analgesic. […] Ketorolac is one of the few non-steroidal anti-inflammatory drugs approved for parenteral administration. However, when administered in combination with other substances, it usually presents stability problems.

[2] = Laboratory stability tests: ketorolac with acid solutions, direct combination with B-complex, light exposure; assay type: physicochemical
Experimental: as §1
Currently, there are no individual pharmaceutical forms for the parenteral administration of ketorolac at 15 mg/ml and B-complex, as described in this invention.
The above situation makes impossible to simply combine ketorolac and B-complex, making it necessary to research and develop a system that provides appropriate stability characteristics for parenteral administration.

[3] = cited from earlier work; for time to reach maximum plasma concentration (tmax): healthy humans

solubility in water [1]	stability when acid solutions are present [2]	SMILES	antinociceptive effect (area under the latency curve as a function of time), dose-response (rat paw)	ED25 (rats)	Emax (rats)	time to reach maximum plasma concentration (tmax) ([3]; intramuscular)	time to reach maximum plasma concentration (tmax) ([3]; oral)	excreted in feces ([3]; humans)	excreted in urine ([3]; humans)
		Cc1cc2nc3c(=O)[nH]c(=O)nc-3n(C[C@H](O)[C@H](O)[C@H](O)CO)c2cc1C [riboflavin, Riboflavin]	dose-dependant response	39.8 ± 7.1 mg/kg	33%				
highly soluble	decreases significantly	O=C(c1ccccc1)c1ccc2n1CCC2C(=O)O (racemic) [ketorolac, (±)-5(benzoyl)-2,3-dihydro-1N-pyrrolizine-1-carboxylic acid tris hydroxy methyl amino methane]	dose-dependant response	2.1 ± 0.5 mg/kg	36%	46 min	53 min	6%	92%
